Measured values as given in US20100298557A1, “PYRAZOLOPYRIMIDINE COMPOUND” (Taisho Pharmaceutical Co., Ltd, priority 2006, published 2010).

How the values were obtained:
Syk = biological target: T1, Syk (Homo sapiens, UniProt P43405); experiment: Syk inhibition test; format: biochemical; conditions: poly(L-glu-L-tyr) substrate, ATP 5 μM, [γ-33P]ATP, 30 minutes room temperature; read-out: Syk inhibitory activity IC50
T1 construct: purchased Wako Pure Chemical Industries
Experimental: 10 ng/10 μl/well of a Syk (Wako Pure Chemical Industries) solution, 15 μl of a poly(L-glu-L-tyr) substrate peptide solution (Sigma, final concentration 5 μM), 20 μl of an ATP mixture (ATP: Oriental Yeast, final concentration 5 μM, [γ-33P]ATP: GE Healthcare Biosciences, 0.1 μCi/well) and 5 μl of a test substance solution were added to a 96-well Corning reaction plate, followed by incubation at room temperature for 30 minutes. An assay buffer containing 50 mM Tris pH 7.5, 10 mM MgCl2, 0.1 mM Na3VO4, 1 mM DTT, 0.01% CHAPS and 100 μg/ml BSA was used. The test substance solution was made by dissolving the test substance in DMSO at each concentration. The final concentration of DMSO was 1%. The reaction was terminated by adding 100 μl of a 120 mM phosphoric acid solution as a reaction terminator. Then, the total reaction solution was transferred to MultiScreen (Millipore) and washed with 200 μl of 100 mM phosphoric acid four times.
After drying, 20 μl of MicroScint-O (PerkinElmer) was added and the radioactivity was measured by TopCount (PerkinElmer). The ratio of the radioactivity when the test substance was added to the radioactivity when the test substance was not added was determined. The IC50 value was calculated from the inhibition rate at each concentration and used as an index of inhibitory activity.

PCA reaction = experiment: Rat passive cutaneous anaphylaxis (PCA) test; format: in vivo; conditions: male Wistar rats, oral administration four hours prior to antigen challenge, blue spot area
Experimental: The back of seven-week-old male Wistar rats was clipped under light anesthesia with ether, and the rats were sensitized by intradermal administration of 100 μl of 25 ng/ml anti-dinitrophenyl-IgE (DNP-IgE) (Sigma) to the back. 24 hours after the sensitization, 1 ml of a 0.5% Evans blue solution containing 1 mg of DNP-BSA was intravenously administered. Further, 30 minutes after the administration, the rats were sacrificed and the back skin was collected. The test compound, or only a vehicle as a control, was orally administered four hours prior to the antigen challenge. The length and breadth of the skin blue spot were calipered, and the area of the blue spot was calculated as length×breadth. The PCA inhibition rate by the test substance was calculated by the following formula. In the formula, • C represents: a blue spot area by PCA reaction when only the vehicle was administered, and • X represents: a blue spot area by PCA reaction when the test compound was administered. Inhibition rate (%)=(C−X)×100/C

Abl = biological target: T2, Abl (Homo sapiens, UniProt P00519); experiment: Abl inhibition test; format: biochemical; conditions: Abltide substrate, ATP 6 μM, [γ-33P]ATP, 40 minutes room temperature; read-out: Abl inhibitory activity IC50
T2 construct: purchased Wako Pure Chemical Industries
Experimental: 5 ng/5 μl/well of an Abl (Wako Pure Chemical Industries) solution, 30 μl of an Abltide substrate peptide solution (Wako Pure Chemical Industries; final concentration 5 μM) and 5 μl of a test substance solution were added to a 96-well plate (Corning), followed by incubation at room temperature for 15 minutes. Then, 10 μl of an ATP mixture (ATP: Oriental Yeast, final concentration 6 μM, [γ-33P]ATP: GE Healthcare Biosciences, 0.06 μCi/well, MgAcetate: Cosmo Bio, final concentration 10 mM) was added, followed by incubation at room temperature for 40 minutes. The Abl solution was prepared using a kinase buffer (20 mM MOPS pH 7.0, 1 mM EDTA, 0.1% β-mercaptoethanol, 0.01% Brij-35, 5% glycerol, 1 mg/ml BSA). The substrate peptide solution and the ATP mixture were prepared using 8 mM MOPS pH 7.0 and 0.2 mM
EDTA. The test substance solution was made by dissolving the test substance in DMSO at each concentration. The final concentration of DMSO was 1%. The reaction was terminated by adding 100 μl of a 100 mM phosphoric acid solution as a reaction terminator. Then, the total reaction solution was transferred to a 96-well MultiScreen plate (Millipore) and washed with 200 μl of 100 mM phosphoric acid three times. After drying, 20 μl of MicroScint-O (PerkinElmer) was added and the radioactivity was measured by TopCount (PerkinElmer). After subtracting the radioactivity in the well to which the Abltide substrate peptide was not added from each radioactivity, the ratio of the radioactivity when the test substance was added to the radioactivity when the test substance was not added was determined. The IC50 value was calculated from the inhibition rate at each concentration and used as an index of inhibitory activity.

[1] = tested on: Human mast cell line LAD cells; experiment: Degranulation test using human mast cell line LAD cells; format: cell-based; conditions: IgE-sensitized LAD cells, anti-human IgE stimulation, β-hexosaminidase release, read-out: degranulation inhibitory activity IC50
Experimental: Human mast cell line LAD cells were sensitized with human IgE (Cosmo Bio; final concentration 1 μg/ml) overnight. The cells were harvested, and then washed with PBS (Invitrogen) and washed again with Tyrode's buffer solution (Sigma) containing 0.1% BSA (Sigma). The cells were seeded into a 96-well plate at 10^5 cells/well and then the compound (0.1% final concentration DMSO solution) was added, followed by incubation at 37° C. for 15 minutes. Rabbit anti-human IgE (Dako Japan; final concentration 10 μg/ml) or control Ig (Dako Japan; final concentration 10 μg/ml) was added, followed by incubation at 37° C. for 30 minutes. The supernatant was recovered and p-nitrophenyl-2-acetamido-2-deoxy-β-D-glucopyranoside (Sigma; final concentration 4 mM), a substrate of β-hexosaminidase which is an index of degranulation, was added, followed by incubation at 37° C. for 45 minutes. Glycine (Wako; final concentration 0.2 M, pH 10.4) was added and the reaction was terminated. Then, the absorbance at 405 nm was measured.
The inhibition rate (%) was calculated as (anti-IgE antibody degranulation rate—compound-added group degranulation rate)/(anti-IgE antibody degranulation rate—control antibody degranulation rate)×100. The IC50 value was calculated from the inhibition rate at each concentration and used as an index of inhibitory activity.

[2] = tested on: collagen-induced arthritis; experiment: Mouse collagen-induced arthritis (CIA) test; format: in vivo; conditions: male DBA/1 mice, oral administration for 42 consecutive days, arthritis score
Experimental: Seven-week-old male DBA/1 mice were sensitized by intradermal administration of bovine type II collagen/complete Freund's adjuvant emulsion (150 μg/0.1 ml/mouse) to the tail head. 21 days after the primary sensitization, the mice were similarly boosted by intradermal administration of bovine type II collagen/complete Freund's adjuvant emulsion (100 μg/0.1 ml/mouse) to the tail head. After the booster, the degree of arthritis was scored by observation for each extremity twice a week on the following scale. • 0: No arthritis • 1: Edema in one finger joint • 2: Edema in two or more finger joints or instep • 3: Edema in tarsus or ankle • 4: Severe edema or joint deformation Oral administration of the test compound, or only a vehicle as a control, was started 30 minutes prior to the booster, and administration was carried out for 42 consecutive days thereafter. For each day passed, the total score for the extremities was provided as an arthritis score for one individual (0 to 16), and the arthritis onset inhibitory effect was evaluated as an average value for eight cases using the vehicle-administered group as a control group.

T2 sequence (P00519 whole entry, species assumed): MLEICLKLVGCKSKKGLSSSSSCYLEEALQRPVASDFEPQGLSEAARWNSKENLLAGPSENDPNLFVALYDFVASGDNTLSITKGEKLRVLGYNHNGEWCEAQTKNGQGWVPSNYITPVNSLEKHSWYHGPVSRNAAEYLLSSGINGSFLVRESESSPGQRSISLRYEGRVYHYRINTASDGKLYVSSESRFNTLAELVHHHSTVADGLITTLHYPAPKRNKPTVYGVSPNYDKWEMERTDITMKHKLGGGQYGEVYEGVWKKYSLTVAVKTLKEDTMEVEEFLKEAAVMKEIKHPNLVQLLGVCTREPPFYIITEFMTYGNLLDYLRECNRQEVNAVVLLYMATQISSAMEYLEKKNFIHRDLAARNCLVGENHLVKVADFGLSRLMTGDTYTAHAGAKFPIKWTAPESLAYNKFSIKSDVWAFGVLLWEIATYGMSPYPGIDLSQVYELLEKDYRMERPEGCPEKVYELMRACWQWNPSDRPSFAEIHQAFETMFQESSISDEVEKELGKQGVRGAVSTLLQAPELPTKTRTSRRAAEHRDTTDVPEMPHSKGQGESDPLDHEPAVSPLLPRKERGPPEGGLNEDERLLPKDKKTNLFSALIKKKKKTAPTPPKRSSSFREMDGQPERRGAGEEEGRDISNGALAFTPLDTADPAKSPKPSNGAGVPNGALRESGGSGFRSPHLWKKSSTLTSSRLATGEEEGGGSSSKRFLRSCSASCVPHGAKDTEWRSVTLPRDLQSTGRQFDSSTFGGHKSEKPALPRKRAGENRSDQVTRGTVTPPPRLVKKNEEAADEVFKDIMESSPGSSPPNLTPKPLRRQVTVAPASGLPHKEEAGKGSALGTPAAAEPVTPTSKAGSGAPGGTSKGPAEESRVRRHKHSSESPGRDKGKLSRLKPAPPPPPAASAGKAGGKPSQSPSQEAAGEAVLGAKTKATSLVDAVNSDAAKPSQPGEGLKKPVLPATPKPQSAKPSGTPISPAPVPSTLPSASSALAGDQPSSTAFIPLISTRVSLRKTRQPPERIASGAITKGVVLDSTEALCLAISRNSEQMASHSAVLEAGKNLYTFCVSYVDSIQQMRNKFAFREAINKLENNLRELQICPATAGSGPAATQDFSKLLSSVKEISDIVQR

IC50 (Syk) [nM]	IC50 (Abl) [nM]	SMILES	inhibition of PCA reaction (PCA reaction)	IC50 [1] [nM]	inhibition of the onset of arthritis in the CIA model [2]
160	≤ 50	CS(=O)(=O)c1n[nH]c2nc(Nc3ccc(N4CCOCC4)cc3)nc(NC3CC3)c12 [Compound 6, N^4-Cyclopropyl-3-(methylsulfonyl)-N^6-(4-morpholin-4-ylphenyl)-1H-pyrazolo[3,4-d]pyrimidine-4,6-diamine]	excellently inhibited PCA reaction	–	–
–	–	CS(=O)(=O)c1n[nH]c2nc(Nc3ccc(N4CCOCC4)cc3)nc(NC3CC3)c12 [Compound 7]	–	24	excellently inhibited the onset of arthritis
≤ 200	≤ 10	CS(=O)(=O)c1n[nH]c2nc(Nc3ccc(N4CCCC(C(=O)N5CCOCC5)C4)cc3)nc(NC3CC3)c12 (centres unmarked) [Compound 143]	–	≤ 100	–
